Assay results as given in US9371295B2, “Compounds for use in the treatment of disorders that are ameliorated by inhibition of HDAC” (IRBM—Science Park S.p.A., priority 2012, dated 2016).

Experiments:
[1] = tested on: human γ-globin promoter (EGFP reporter) in K562 cells; assay: HbF activation assay on K562 (EGFP/RFP reporter model system for screening of inducers of fetal hemoglobin); format: cell-based; conditions: 60 hours
Outline: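 K562 cells stably carrying EGFP under the human γ-globin promoter and far-red FP under the β-globin promoter, with the LCR, were seeded at 1000 cells/well. Cells were exposed to compounds (0.25% DMSO final) for 60 h at 37 °C. Fluorescence was read by plate cytometry, normalized to Hoechst nuclei count, which also indicated proliferation or death.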

HDAC1 = biological target: T1, HDAC1 (Homo sapiens, UniProt Q13547); assay: HDAC1 assay (Fluor-de-Lys fluorescent deacetylase assay); format: biochemical; conditions: read-out: hHDAC IC50
T1 construct: made in house
T1 sequence (Q13547 whole entry): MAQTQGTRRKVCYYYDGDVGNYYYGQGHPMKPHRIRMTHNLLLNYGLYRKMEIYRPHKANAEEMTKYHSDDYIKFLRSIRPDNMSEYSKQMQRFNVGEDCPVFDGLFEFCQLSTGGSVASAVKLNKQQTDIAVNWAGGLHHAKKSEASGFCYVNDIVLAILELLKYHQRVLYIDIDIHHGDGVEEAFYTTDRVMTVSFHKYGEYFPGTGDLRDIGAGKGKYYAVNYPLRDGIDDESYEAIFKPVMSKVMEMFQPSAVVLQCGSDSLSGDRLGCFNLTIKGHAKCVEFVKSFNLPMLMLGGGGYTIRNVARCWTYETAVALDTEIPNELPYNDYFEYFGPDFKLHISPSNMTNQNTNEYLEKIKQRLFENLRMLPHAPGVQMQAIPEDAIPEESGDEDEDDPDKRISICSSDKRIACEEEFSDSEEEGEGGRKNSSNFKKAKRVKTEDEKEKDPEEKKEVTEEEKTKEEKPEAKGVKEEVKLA
Outline: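 Serially diluted compounds were pre-incubated with purified FLAG-tagged HDAC1 (1-2 nM final; from transfected HeLa cells) or HeLa nuclear extract, then given the Fluor-de-Lys acetyl-lysine substrate/developer; deacetylation read as fluorescence. Reactions were stopped with TSA (3 uM final).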

Row | EC50 [1] | IC50 (HDAC1) | SMILES
1 | 100 to 1000 nM | < 100 nM | CCC(=O)CCCCC[C@H](NC(=O)C1CCN(C)CC1)c1ncc(-c2cc3ccccc3n(C)c2=O)o1 [Compound 109, (S)-1-methyl-N-(1-(5-(1-methyl-2-oxo-1,2-dihydroquinolin-3-yl)oxazol-2-yl)-7-oxononyl)piperidine-4-carboxamide]
2 | < 100 nM | < 100 nM | CCC(=O)CCCCC[C@H](NC(=O)CCN(C)C)c1ncc(-c2cc3ccccc3n(C)c2=O)o1 [Compound 106, (S)-3-(dimethylamino)-N-(1-(5-(1-methyl-2-oxo-1,2-dihydroquinolin-3-yl)oxazol-2-yl)-7-oxononyl)propanamide]
3 | < 100 nM | < 100 nM | CCC(=O)CCCCC[C@H](NC(=O)C(C)(C)N(C)C)c1ncc(-c2cc3ccccc3n(C)c2=O)o1 [Compound 107, (S)-2-(dimethylamino)-2-methyl-N-(1-(5-(1-methyl-2-oxo-1,2-dihydroquinolin-3-yl)oxazol-2-yl)-7-oxononyl)propanamide]
4 | 100 to 1000 nM | < 100 nM | CCC(=O)CCCCC[C@H](NC(=O)c1cnc(CN2CCCC2)s1)c1ncc(-c2cc3ccccc3nc2OC)o1 [Compound 82, (S)-N-(1-(5-(2-methoxyquinolin-3-yl)oxazol-2-yl)-7-oxononyl)-2-(pyrrolidin-1-ylmethyl)thiazole-5-carboxamide]
5 | > 1000 nM | < 100 nM | CCC(=O)CCCCC[C@H](NC(=O)C1(F)CN(C)C1)c1ncc(-c2cc3ccccc3nc2OC)o1 [Compound 67, (S)-3-fluoro-N-(1-(5-(2-methoxyquinolin-3-yl)oxazol-2-yl)-7-oxononyl)-1-methylazetidine-3-carboxamide]
6 | 100 to 1000 nM | < 100 nM | CCC(=O)CCCCC[C@H](NC(=O)c1cncs1)c1ncc(-c2cc3ccccc3n(C)c2=O)o1 [Compound 110, (S)-N-(1-(5-(1-methyl-2-oxo-1,2-dihydroquinolin-3-yl)oxazol-2-yl)-7-oxononyl)thiazole-5-carboxamide]
7 | 100 to 1000 nM | < 100 nM | CCC(=O)CCCCC[C@H](NC(=O)C1CN(C)C1)c1ncc(-c2cc3ccccc3n(C)c2=O)o1 [Compound 92, (S)-1-methyl-N-(1-(5-(1-methyl-2-oxo-1,2-dihydroquinolin-3-yl)oxazol-2-yl)-7-oxononyl)azetidine-3-carboxamide]
8 | 100 to 1000 nM | < 100 nM | CCC(=O)CCCCC[C@H](NC(=O)C1CN(C)C1)c1ncc(-c2cc3ccccc3nc2OC)o1 [Compound 2, (S)-N-(1-(5-(2-methoxyquinolin-3-yl)oxazol-2-yl)-7-oxononyl)-1-methylazetidine-3-carboxamide]
9 | < 100 nM | < 100 nM | CCC(=O)CCCCC[C@H](NC(=O)C1(N(C)C)CCCC1)c1ncc(-c2cc3ccccc3n(C)c2=O)o1 [Compound 111, (S)-1-(dimethylamino)-N-(1-(5-(1-methyl-2-oxo-1,2-dihydroquinolin-3-yl)oxazol-2-yl)-7-oxononyl)cyclopentanecarboxamide]
10 | 100 to 1000 nM | < 100 nM | CCC(=O)CCCCC[C@H](NC(=O)Cn1nc(C)nc1C)c1ncc(-c2cc3ccccc3nc2OC)o1 [Compound 80, (S)-2-(3,5-dimethyl-1H-1,2,4-triazol-1-yl)-N-(1-(5-(2-methoxyquinolin-3-yl)oxazol-2-yl)-7-oxononyl)acetamide]
11 | > 1000 nM | < 100 nM | CCC(=O)CCCCC[C@H](NC(=O)C(=O)N1CCN(C)CC1)c1ncc(-c2cc3ccccc3nc2OC)o1 [Compound 37, (S)-N-(1-(5-(2-methoxyquinolin-3-yl)oxazol-2-yl)-7-oxononyl)-2-(4-methylpiperazin-1-yl)-2-oxoacetamide]
